# Patent publication US20240293416A1, “TREATMENT OF LIVER DISORDERS WITH A THR-ß AGONIST” (Terns Pharmaceuticals, Inc., priority 2021, published 2024)
# Several values for one entry are separate records, joined by “and”; a condition that tells them apart may be missing. Equal entries are not always repeated.
# How the values were obtained:
# [1] = pH and solubilizer effect on solubility; type: physicochemical
# Experimental: Solubility of Compound 1 (potassium salt) was evaluated at various pH levels.
# [2] = Pharmacokinetics of 50 mg capsules with or without SLS in beagle dogs; type: in vivo; conditions: 50 mg capsule with vs without 5 wt % SLS
# [3] = pH effect on PK performance in beagle dogs; type: in vivo; conditions: 10 mg capsule, 5% SLS; pentagastrin vs famotidine pre-treatment, n=3 per group
# Description: To determine the pH effect on PK performance, beagle dogs were divided into two groups (n=3 per group).
# [4] = system: biopsy-confirmed DIO-NASH mice; assay: DIO-GAN NASH mice: liver enzymes, plasma and liver lipids, CK18 M30; type: in vivo, C57BL/6JRj mice; conditions: for plasma triglycerides (TG): end of study
# Description: (§1) C57BL/6JRj male mice (n=138) were fed the Gubra Amylin NASH (GAN) diet (40% fat, 22% fructose, 2% cholesterol [D09100310, Research Diets]) or lean chow diet for 35 weeks before treatment start. Prior to treatment all animals underwent liver biopsy for histological confirmation (steatosis score ≥2 and fibrosis stage ≥1) and stratification using the nonalcoholic fatty liver disease (NAFLD) activity scoring (NAS) and fibrosis staging system. The diet-induced obese mice on GAN diet (DIO-GAN) were randomized to 8 treatment groups (Table 16) based on percent-area of picrosirius red (PSR) staining. […] Vehicle-dosed lean chow-fed controls served as healthy controls (n=10). Mice were maintained on their respective diets (GAN or lean chow) for the duration of the study. Within-subject comparisons (pre-vs. post-treatment) were performed for liver biopsy histopathological scores. Terminal quantitative endpoints included plasma/liver biochemistry, liver histomorphometry, and liver transcriptomic analysis by RNAseq.
# Terminal blood was harvested by cardiac puncture from mice anesthetized with isoflurane (2-3%), mixed with anticoagulant, and placed at 4 C prior to centrifugation at 3000×g for 10 minutes. Plasma supernatants were transferred to new tubes and immediately frozen on dry ice and stored at −80 C. Alanine transaminase (ALT), Aspartate transaminase (AST), Alkaline phosphatase (ALP), Triglycerides (TGs), Total Cholesterol (TC), High-density lipoprotein (HDL-c), and Low-density lipoprotein (LDL-c) were measured using commercial kits (Roche Diagnostics) on the Cobas c 501 autoanalyzer according to manufacturer's instructions. Cytokeratin 18 M30 (CK18 M30) was measured from plasma using a commercial ELISA kit (Cusabio) according to the manufacturer's instructions.
# Liver samples were homogenized and TGs and TC was extracted in 5% NP-40 by heating (2×) at 90 C. Samples were centrifuged and the TG and TC content was measured in the supernatant using commercial kits (Roche Diagnostics) on the Cobas c 501 autoanalyzer, according to the manufacturer's instructions.
# [5] = system: biopsy-confirmed DIO-NASH mice; assay: DIO-GAN NASH mice: liver histology (NAS, fibrosis, IHC); type: in vivo, C57BL/6JRj mice
# Description: as §1
# Formalin-fixed paraffin-embedded (FFPE) liver biopsies were prepared by placing liver samples into 10% neutral buffered formalin for ˜24 hours and then transferred to 70% ethanol prior to storage at 4 C. FFPE were placed in the Histokinette to infiltrate prior to embedding in blocks. Biopsy tissues were then cut at 3 μm using a microtome and sections were mounted on slides. Liver sections were stained with Hematoxylin and Eosin (H&E) to assess steatosis, inflammation, and ballooning, and PSR to assess fibrosis. Additionally, slides were processed to detect type I collagen (Col1a1), galectin-3 (Gal-3), and smooth muscle actin (α-SMA) protein expression by immunohistochemistry (IHC). For H&E staining, slides were incubated in Mayer's Hematoxylin (Dako), washed with tap water, stained in Eosin Y solution (Sigma-Aldrich), dehydrated, and coverslipped. For PSR, slides were incubated in Weigert's iron hematoxylin (Sigma-Aldrich), washed in tap water, stained in Picro-sirius red (Sigma-Aldrich), and washed twice in acidified water. Excess water was removed by shaking the slides and the slides were then dehydrated with ethanol, cleared in xylene, and cover-slipped. The NAS and fibrosis stage were scored as described previously (Kleiner et al. 2005). NAS represents the unweighted sum of steatosis, inflammation, and ballooning scores and ranges for 0-8 (Table 17); fibrosis stage ranges from 0 (no fibrosis) to 4 (cirrhosis). For detection of Col1a1, Gal-3 and α-SMA, IHC was performed by standard procedures. Briefly, after antigen retrieval and blocking of endogenous peroxidase activity, slides were incubated with primary antibody (Col1a1: Southern Biotech, Cat. 1310-01; Gal-3: Biolegend, Cat. 125402; α-SMA: Abcam Cat. Ab124964). Primary antibody was detected using a polymeric HRP-linker antibody conjugate. Primary antibody was visualized with DAB as chromogen. Finally, sections were counterstained in hematoxylin and cover-slipped.
# The NAFLD Activity Score (NAS) was used to assess the histological effects of treatment. NAS is defined as the unweighted sum of steatosis, inflammation, and ballooning histological scores and can range from 0-8. NAS was determined for each animal before (baseline) and after 12-weeks of treatment at the end of study. NAS was well balanced across treatment groups with an NAS range of 5-6 at baseline in most mice (FIG. 39A). […] In addition, the magnitude of NAS improvement was greater in the combination treatment groups.
# [6] = system: biopsy-confirmed DIO-NASH mice; assay: DIO-GAN NASH mice: liver transcriptomics by RNAseq; type: in vivo, C57BL/6JRj mice; conditions: RNAseq at termination
# Description: as §1
# Tissue was collected and snap-frozen in liquid nitrogen and stored at −80 C until processing. RNA was isolated using a NucleoSpin kit ([…]-NAGEL). […]
# [7] = PO QD 12 weeks, Compound 1-low, 0.3 mg/kg
# [8] = PO QD 12 weeks, Compound 1-med, 2 mg/kg
# [9] = PO QD 12 weeks, Compound 1 Low, 0.3 mg/kg
# [10] = PO QD 12 weeks, Compound 1 Med, 2 mg/kg
# [11] = PO QD 12 weeks, Compound 2 10 mg/kg alone or plus Compound 1 0.3/2/10 mg/kg (Combo Low/Med/High)
# [12] = PO QD 12 weeks, Compound 2 10 mg/kg alone or plus Compound 1 0.3/2/10 mg/kg (Combo-low/med/high)
structure (smiles),measurement,setting,value
"N#Cc1nn(-c2cc(Cl)c(Oc3n[nH]c(=O)c4ccccc34)c(Cl)c2)c(=O)[nH]c1=O [Compound 1, 2-(3,5-dichloro-4-((4-oxo-3,4-dihydrophthalazin-1-yl)oxy)phenyl)-3,5-dioxo-2,3,4,5-tetrahydro-1,2,4-triazine-6-nitrile]",aqueous solubility,[1]; even in the salt form,very low aqueous solubility
same,Solubility,"[1]; pH 10.0 buffer, 24 h, with 2 wt % SLS, 25° C., potassium salt",308.2 µg/mL
same,"increase of exposure (Cmax, AUC) by formulation with 5 wt % SLS",[2],more than 70%
same,pH effect on plasma concentrations,[3],Minimal pH effect
same,plasma triglycerides (TG),"[4]; Compound 1-high, 10 mg/kg",significantly reduced
same,ALT levels relative to DIO-GAN vehicle control,"[4]; single agent Compound 1 low, med, and high (0.3, 2, 10 mg/kg)",significantly lowered
same,"NAFLD Activity Score (NAS): No change, % of mice",[5]; [7],56.25%
same,"NAS: Improving 1-pt, % of mice",[5]; [7],31.25%
same,"NAS: Improving Total (≥1-pt), % of mice",[5]; [7],31% and 31.25%
same,"NAS: Improving ≥2-pt, % of mice",[5]; [7],0%
same,"NAS: Worsening ≥1-pt, % of mice",[5]; [7],12.5%
same,"NAS: Improving 1-pt, % of mice",[5]; [8],20%
same,"NAS: Improving Total (≥1-pt), % of mice",[5]; [8],27%
same,"NAS: Improving ≥2-pt, % of mice",[5]; [8],7% and 6.7%
same,"NAS: Worsening ≥1-pt, % of mice",[5]; [8],0%
same,"Histological Steatosis Score: No change, % of mice",[5]; [9],68.75%
same,"Liver Fibrosis stage: Improving, % of mice",[5]; [9],6.25%
same,"Liver Fibrosis stage: No change, % of mice",[5]; [9],62.5%
same,"Lobular Inflammation: Improving, % of mice",[5]; [9],6.25%
same,"Lobular Inflammation: Worsening, % of mice",[5]; [9],25%
same,"Steatosis Score: Improving 1-pt, % of mice",[5]; [9],25%
same,"Steatosis Score: Improving Total, % of mice",[5]; [9],31%
same,"Steatosis Score: Improving ≥2-pt, % of mice",[5]; [9],6.25%
same,"Liver Fibrosis stage: No change, % of mice",[5]; [10],60%
same,"Lobular Inflammation: Improving, % of mice",[5]; [10],6.7%
same,"Lobular Inflammation: Worsening, % of mice",[5]; [10],20%
same,"Steatosis Score: Improving 1-pt, % of mice",[5]; [10],40%
same,"Steatosis Score: Improving Total, % of mice",[5]; [10],47%
same,"Steatosis Score: Improving ≥2-pt, % of mice",[5]; [10],6.7%
same,α-SMA (IHC),"[5]; end of study, Compound 1-low and Compound 1-med (0.3 and 2 mg/kg)",Numeric reductions
Cn1cc(C(=O)O)c2ccc(C3CCC(OCc4c(-c5c(Cl)cccc5Cl)noc4C4CC4)CC3)cc21 (centres unmarked) [Compound 2],plasma triglycerides (TG),[4]; Compound 2 10 mg/kg and combinations,significantly reduced
same,"Histological Steatosis Score: No change, % of mice",[5]; [11],18.75%
same,"Liver Fibrosis stage: Improving, % of mice",[5]; [11],6.25%
same,"Liver Fibrosis stage: No change, % of mice",[5]; [11],56.25%
same,"Liver Fibrosis stage: Worsening, % of mice",[5]; [11],37.5%
same,"Lobular Inflammation: Improving, % of mice",[5]; [11],0%
same,"Lobular Inflammation: No change, % of mice",[5]; [11],68.75%
same,"Lobular Inflammation: Worsening, % of mice",[5]; [11],31.25%
same,"Steatosis Score: Improving 1-pt, % of mice",[5]; [11],81.25%
same,"Steatosis Score: Improving Total, % of mice",[5]; [11],81% and 81.25%
same,"Steatosis Score: Improving ≥2-pt, % of mice",[5]; [11],0%
same,"NAFLD Activity Score (NAS): No change, % of mice",[5]; [12],43.7%
same,"NAS: Improving 1-pt, % of mice",[5]; [12],56.25%
same,"NAS: Improving Total (≥1-pt), % of mice",[5]; [12],56% and 56.25%
same,"NAS: Improving ≥2-pt, % of mice",[5]; [12],0%
same,"NAS: Worsening ≥1-pt, % of mice",[5]; [12],0%
same,α-SMA (IHC),"[5]; end of study, Compound 2 10 mg/kg, combinations per Table 16",Numeric reductions
same,Gal-3 expression in the liver (IHC) relative to DIO-GAN vehicle control,"[5]; end of study, doses per Table 16",lower levels of Gal-3 expression
same,"liver expression of Col1a1, Acta2, Lgals3 and CD146 relative to DIO-GAN vehicle control",[6],significantly reduced expression
same,liver expression of Scd1,[6],reduced
